Data as given in ChEMBL document CHEMBL4371004, “A-C Estrogens as Potent and Selective Estrogen Receptor-Beta Agonists (SERBAs) to Enhance Memory Consolidation under Low-Estrogen Conditions” (J Med Chem, 2018).
pEC50: −log10 of the molar value. Calls of active or inactive are those of the source. The rule behind the calls is not given here.

Key:
[1] = target: T1, Progesterone receptor (Homo sapiens) (UniProt P06401); assay: Agonist activity at GAL4 DNA binding domain fused progesterone receptor ligand binding domain (unknown origin) at 0.25 to 25 uM by FRET-based assay
T1 sequence (whole entry): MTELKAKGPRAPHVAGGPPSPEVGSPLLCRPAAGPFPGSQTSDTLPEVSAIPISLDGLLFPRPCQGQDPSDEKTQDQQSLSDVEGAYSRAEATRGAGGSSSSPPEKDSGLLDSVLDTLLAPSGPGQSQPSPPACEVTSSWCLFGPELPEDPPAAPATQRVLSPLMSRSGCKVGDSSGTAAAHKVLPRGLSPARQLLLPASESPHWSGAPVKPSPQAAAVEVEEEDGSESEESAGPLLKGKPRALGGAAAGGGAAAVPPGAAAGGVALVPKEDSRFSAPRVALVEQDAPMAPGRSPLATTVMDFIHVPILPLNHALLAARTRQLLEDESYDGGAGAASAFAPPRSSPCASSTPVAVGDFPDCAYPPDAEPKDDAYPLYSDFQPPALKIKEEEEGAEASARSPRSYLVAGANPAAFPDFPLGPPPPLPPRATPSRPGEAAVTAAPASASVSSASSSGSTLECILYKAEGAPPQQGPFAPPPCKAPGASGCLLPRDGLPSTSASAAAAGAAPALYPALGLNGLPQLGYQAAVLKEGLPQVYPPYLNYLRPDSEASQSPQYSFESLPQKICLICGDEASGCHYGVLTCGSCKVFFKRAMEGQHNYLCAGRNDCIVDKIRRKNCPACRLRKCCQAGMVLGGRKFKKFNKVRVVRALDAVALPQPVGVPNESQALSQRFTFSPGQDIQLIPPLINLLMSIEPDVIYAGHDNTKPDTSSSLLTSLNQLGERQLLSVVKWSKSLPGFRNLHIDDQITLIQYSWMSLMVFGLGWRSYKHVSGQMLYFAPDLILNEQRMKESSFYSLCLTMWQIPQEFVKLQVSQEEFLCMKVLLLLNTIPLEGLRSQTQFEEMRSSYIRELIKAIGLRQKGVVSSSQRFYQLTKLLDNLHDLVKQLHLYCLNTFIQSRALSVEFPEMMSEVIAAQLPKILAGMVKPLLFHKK

[2] = tested on: Mus musculus; assay: Memory enhancement effect in C57BL/6 mouse assessed as time spent with moved object at 10 pg administered as dorsal hippocampal infusion by novel object recognition test; type: functional
[3] = tested on: Mus musculus; assay: Memory enhancement effect in C57BL/6 mouse assessed as time spent with moved object at 1 ng administered as dorsal hippocampal infusion by novel object recognition test; type: functional
[4] = tested on: Mus musculus; assay: Memory enhancement effect in C57BL/6 mouse assessed as time spent with novel object at 100 pg administered as dorsal hippocampal infusion by novel object recognition test; type: functional
[5] = tested on: Mus musculus; assay: Memory enhancement effect in C57BL/6 mouse assessed as time spent with novel object at 1 ng administered as dorsal hippocampal infusion by novel object recognition test; type: functional
[6] = tested on: Mus musculus; assay: Memory enhancement effect in C57BL/6 mouse assessed as time spent with moved object at 0.5 mg/kg, ip by novel object recognition test; type: functional
[7] = tested on: Mus musculus; assay: Memory enhancement effect in C57BL/6 mouse assessed as time spent with novel object at 0.5 mg/kg, ip by novel object recognition test; type: functional
[8] = tested on: Mus musculus; assay: Memory enhancement effect in C57BL/6 mouse assessed as time spent with moved object at 5 mg/kg, po administered via gavage by object recognition test; type: functional
[9] = tested on: Mus musculus; assay: Memory enhancement effect in C57BL/6 mouse assessed as time spent with novel object at 5 mg/kg, po administered via gavage by novel object recognition test; type: functional
[10] = target: T2, Estrogen receptor (Homo sapiens, UniProt P03372)
T2 sequence (P03372 whole entry): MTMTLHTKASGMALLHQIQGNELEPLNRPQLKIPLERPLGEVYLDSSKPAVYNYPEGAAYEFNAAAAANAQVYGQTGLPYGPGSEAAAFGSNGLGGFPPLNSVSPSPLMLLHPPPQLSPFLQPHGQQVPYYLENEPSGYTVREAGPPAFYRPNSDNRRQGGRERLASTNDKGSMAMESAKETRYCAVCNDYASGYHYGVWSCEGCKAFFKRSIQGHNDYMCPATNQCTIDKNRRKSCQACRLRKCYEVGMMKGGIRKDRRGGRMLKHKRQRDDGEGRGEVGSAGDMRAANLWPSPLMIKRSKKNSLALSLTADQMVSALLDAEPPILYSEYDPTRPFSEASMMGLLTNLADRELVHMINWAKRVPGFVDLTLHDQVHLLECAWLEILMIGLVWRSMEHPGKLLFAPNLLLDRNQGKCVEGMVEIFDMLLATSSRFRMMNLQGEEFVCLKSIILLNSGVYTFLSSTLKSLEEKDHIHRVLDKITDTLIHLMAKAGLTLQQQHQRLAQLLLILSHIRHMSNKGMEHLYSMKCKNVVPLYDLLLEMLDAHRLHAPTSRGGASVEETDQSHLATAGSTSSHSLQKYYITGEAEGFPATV

[11] = target: Cytochrome P450 3A4 (Homo sapiens, UniProt P08684)
Sequence of Cytochrome P450 3A4 (P08684 whole entry): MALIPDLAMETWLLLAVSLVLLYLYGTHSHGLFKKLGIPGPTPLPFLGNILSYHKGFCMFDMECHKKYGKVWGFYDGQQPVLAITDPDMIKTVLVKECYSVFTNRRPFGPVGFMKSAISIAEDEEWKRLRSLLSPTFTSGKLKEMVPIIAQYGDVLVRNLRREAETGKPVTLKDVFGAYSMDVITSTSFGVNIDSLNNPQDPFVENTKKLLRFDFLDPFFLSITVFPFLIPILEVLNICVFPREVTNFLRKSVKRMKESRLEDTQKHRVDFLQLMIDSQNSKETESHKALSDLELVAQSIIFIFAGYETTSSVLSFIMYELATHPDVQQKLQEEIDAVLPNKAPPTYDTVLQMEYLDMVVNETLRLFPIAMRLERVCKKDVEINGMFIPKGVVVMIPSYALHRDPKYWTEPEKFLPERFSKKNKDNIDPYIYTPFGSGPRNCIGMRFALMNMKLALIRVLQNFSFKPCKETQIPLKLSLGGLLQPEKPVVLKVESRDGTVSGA
Description: Inhibition of human recombinant CYP3A4 preincubated for 10 mins followed by NADPH addition and measured after 10 to 30 mins by P450-Glo luminescence assay

## OC[C@H]1CC[C@H](c2ccc(O)cc2)CC1
[1]
  Activity: inactive
[2]
  Time: 1.19 s
[3]
  Time: 3.4 s
[4]
  Time: 3.16 s
[5]
  Time: 1.08 s
[6]
  Time: 3.93 s
[7]
  Time: 4.17 s
[8]
  Time: 5.06 s
[9]
  Time: 2.36 s
[10]
  pEC50: 6.54
[11]
  pEC50: 4.05
